Test results reported in US8586611B2 (priority 2005, dated 2013).
Like-named read-outs stand apart in the source and are kept apart here.

How the values were obtained:
Format in all cases: in vivo
[1] = tested on: Erysiphe graminis f. sp. tritici; assay: Test E: wheat powdery mildew, spray the day before inoculation (disease rating, 100 = 100% disease control); details: Blumeria graminis, topical, 168 h, spray the day before inoculation, tested at 40 ppm, read-out: Test E disease rating (100 = 100% disease control, 0 = no disease control)
From the text: (§1) The test compounds were first dissolved in acetone in an amount equal to 3% of the final volume and then suspended at the desired concentration (in ppm) in acetone and purified water (50/50 mix by volume) containing 250 ppm of the surfactant Trem® 014 (polyhydric alcohol esters). The resulting test suspensions were then used in tests A-E. Spraying a 200 ppm test suspension to the point of run-off on the test plants was the equivalent of a rate of 500 g/ha.
The test suspension was sprayed to the point of run-off on wheat seedlings. The following day the seedlings were inoculated with a spore dust of Erysiphe graminis f. sp. tritici, (the causal agent of wheat powdery mildew) and incubated in a growth chamber at 20° C. for 7 days, after which disease ratings were made.
(§2) Results for Tests A-F are given in Table A. In the table, a rating of 100 indicates 100% disease control and a rating of 0 indicates no disease control (relative to the controls). A dash (-) indicates no test results.

Phytophthora infestans [2] = assay: whole plant or invertebrate; details: Phytophthora infestans, in Solanum lycopersicum, 144 h, read-out: Test C disease rating (100 = 100% disease control, 0 = no disease control)
Plasmopara viticola = assay: Test B: grape downy mildew, spray 24 h after inoculation (disease rating, 100 = 100% disease control); details: Plasmopara viticola, 144 h, spray 24 h after inoculation, tested at 40 ppm, read-out: Test B disease rating (100 = 100% disease control, 0 = no disease control)
From the text: as §1
Grape seedlings were inoculated with a spore suspension of Plasmopara viticola (the causal agent of grape downy mildew) and incubated in a saturated atmosphere at 20° C. for 24 h. After a short drying period, the test suspension was sprayed to the point of run-off on the grape seedlings and then moved to a growth chamber at 20° C. for 5 days, after which the test units were placed back into a saturated atmosphere at 20° C. for 24 h. Upon removal, disease ratings were made.
as §2

Phytophthora infestans [3] = assay: whole plant or invertebrate; details: Phytophthora infestans, in Solanum lycopersicum, topical, 96 h, read-out: Test D disease rating (100 = 100% disease control, 0 = no disease control)

Compound | pest or weed control at 40 ppm [1] [%] | pest or weed control at 40 ppm (Phytophthora infestans [2]) [%] | pest or weed control at 40 ppm (Plasmopara viticola) [%] | pest or weed control at 40 ppm (Phytophthora infestans [3]) [%]
Cc1cc(C(F)(F)F)nn1CC(=O)N1CCC(c2nc(C(=O)N(C)[C@@H]3CCCc4ccccc43)co2)CC1 [Compound 151, N-methyl-2-[1-[[5-methyl-3-(trifluoromethyl)-1H-pyrazol-1-yl]acetyl]-4-piperidinyl]-N-[(1R)-1,2,3,4-tetrahydro-1-naphthalenyl]-4-oxazolecarboxamide] | 0 | 100 | 99 | 99
CC[C@H](c1ccccc1)N(C)C(=O)c1coc(C2CCN(C(=O)Cn3nc(C(F)(F)F)cc3C)CC2)n1 [Compound 152, N-methyl-2-[1-[[5-methyl-3-(trifluoromethyl)-1H-pyrazol-1-yl]acetyl]-4-piperidinyl]-N-[(1R)-1-phenylpropyl]-4-oxazolecarboxamide] | 0 | 100 | 99 | 99
Cc1ccc(C)c(CC(=O)N2CCC(c3nc(C(=O)N(C)[C@@H]4CCCc5ccccc54)co3)CC2)c1 [Compound 153, 2-[1-[(2,5-dimethylphenyl)acetyl]-4-piperidinyl]-N-methyl-N-[(1R)-1,2,3,4-tetrahydro-1-naphthalenyl]-4-oxazolecarboxamide] | 0 | 100 | 99 | 98
CC[C@H](c1ccccc1)N(C)C(=O)c1coc(C2CCN(C(=O)Cc3cc(C)ccc3C)CC2)n1 [Compound 154, 2-[1-[(2,5-dimethylphenyl)acetyl]-4-piperidinyl]-N-methyl-N-[(1R)-1-phenylpropyl]-4-oxazolecarboxamide] | 0 | 100 | 99 | 68
Cc1cc(C(F)(F)F)nn1CC(=O)N1CCC(c2nc(C(=O)N(C)C3CCC(=O)c4ccccc43)cs2)CC1 (centres unmarked) [Compound 211, N-methyl-2-[1-[[5-methyl-3-(trifluoromethyl)-1H-pyrazol-1-yl]acetyl]-4-piperidinyl]-N-(1,2,3,4-tetrahydro-4-oxo-1-naphthalenyl)-4-thiazolecarboxamide] | 0 | 100 | 99 | 99
Cc1cc(C(F)(F)F)nn1CC(=O)N1CC=C(c2nc(C(=O)N(C)[C@@H]3CCCc4ccccc43)cs2)CC1 [Compound 218, N-methyl-2-[1,2,3,6-tetrahydro-1-[[5-methyl-3-(trifluoromethyl)-1H-pyrazol-1-yl]acetyl]-4-pyridinyl]-N-[(1R)-1,2,3,4-tetrahydro-1-naphthalenyl]-4-thiazolecarboxamide] | 0 | 100 | 91 | 99
Cc1cc(C(F)(F)F)nn1CC(=O)N1CCN(c2nc(C(=O)N(C)[C@@H]3CCCc4ccccc43)cs2)CC1 [Compound 220, N-methyl-2-[4-[[5-methyl-3-(trifluoromethyl)-1H-pyrazol-1-yl]acetyl]-1-piperazinyl]-N-[(1R)-1,2,3,4-tetrahydro-1-naphthalenyl]-4-thiazolecarboxamide] | 0 | 100 | 95 | 98
Cc1cc(C(F)(F)F)nn1CC(=O)N1CCC(c2nc(C(=O)N(C)C3c4ccccc4CC3(C)C)cs2)CC1 (centres unmarked) [Compound 222, N-(2,3-dihydro-2,2-dimethyl-1H-inden-1-yl)-N-methyl-2-[1-[[5-methyl-3-(trifluoromethyl)-1H-pyrazol-1-yl]acetyl]-4-piperidinyl]-4-thiazolecarboxamide] | 0 | 100 | 100 | 99
